Data taken from ChEMBL document CHEMBL4376823, “The discovery of a potent and selective third-generation EGFR kinase inhibitor as a therapy for EGFR L858R/T790M double mutant non-small cell lung cancer” (Eur J Med Chem, 2019).
pIC50: −log10 of the molar value.

What was measured:
NCI-H1975 [1] = assay: Antitumor activity against human NCI-H1975 cells xenografted in ig dosed BALB/c mouse assessed as tumor growth inhibition for one week; type: functional, organism-based
NCI-H292 = assay: Antiproliferative activity against human NCI-H292 cells expressing EGFR assessed as reduction in cell viability incubated for 72 hrs by MTT assay; type: functional, cell-based
NCI-H1975 [2] = assay: Antiproliferative activity against human NCI-H1975 cells expressing EGFR T790M/L858R mutant assessed as reduction in cell viability incubated for 72 hrs by MTT assay; type: functional, cell-based
PC-9 = assay: Antiproliferative activity against human PC9 cells expressing EGFR L858R mutant assessed as reduction in cell viability incubated for 72 hrs by MTT assay; type: functional, cell-based
[3] = molecular target: Epidermal growth factor receptor (Homo sapiens, UniProt P00533); assay: Inhibition of recombinant human GST-tagged EGFR (668 to 1210 residues) expressed in baculovirus expression system using Tyr 04 as substrate incubated for 1 hr by Z'-LYTE assay
[4] = molecular target: Epidermal growth factor receptor (Homo sapiens, UniProt P00533, L858R/T790M); assay: Inhibition of recombinant human GST-tagged EGFR T790M/L858R mutant expressed in baculovirus expression system using Tyr 04 as substrate incubated for 1 hr by Z'-LYTE assay
[5] = molecular target: Epidermal growth factor receptor (Homo sapiens, UniProt P00533, L858R); assay: Inhibition of recombinant human GST-tagged EGFR L858R mutant expressed in baculovirus expression system using Tyr 04 as substrate incubated for 1 hr by Z'-LYTE assay
[6] = Selectivity index, ratio of IC50 for human HLF cells to IC50 for human NCI-H1975 cells expressing EGFR T790M/L858R mutant
[7] = Selectivity index, ratio of IC50 for human HK2 cells to IC50 for human NCI-H1975 cells expressing EGFR T790M/L858R mutant
[8] = Selectivity index, ratio of IC50 for human BJ cells to IC50 for human NCI-H1975 cells expressing EGFR T790M/L858R mutant; type: toxicity
[9] = Cytotoxicity against human HLF cells expressing EGFR assessed as reduction in cell viability incubated for 72 hrs by MTT assay; type: cell-based
[10] = Selectivity index, ratio of IC50 for human HEK293A cells to IC50 for human NCI-H1975 cells expressing EGFR T790M/L858R mutant; type: toxicity
[11] = Selectivity index, ratio of IC50 for human LO2 cells to IC50 for human NCI-H1975 cells expressing EGFR T790M/L858R mutant; type: toxicity
[12] = Cytotoxicity against human HEK293A cells expressing EGFR assessed as reduction in cell viability incubated for 72 hrs by MTT assay; type: cell-based, HEK293-A
[13] = Cytotoxicity against human HEK293A cells assessed as change in cell morphology at 5 and 10 uM incubated for 48 hrs by microscopic analysis; type: cell-based; settings: hek293-a
L02 [14] = assay: Cytotoxicity against human LO2 cells assessed as change in cell morphology at 5 and 10 uM incubated for 48 hrs by microscopic analysis; type: cell-based; settings: l02, 48 h
HK-2 [15] = assay: Cytotoxicity against human HK2 cells assessed as change in cell morphology at 5 and 10 uM incubated for 48 hrs by microscopic analysis; type: cell-based; settings: hk-2, 48 h
HK-2 [16] = assay: Cytotoxicity against human HK2 cells expressing EGFR assessed as reduction in cell viability incubated for 72 hrs by MTT assay; type: cell-based; settings: HK-2, 72 h
BJ = assay: Cytotoxicity against human BJ cells expressing EGFR assessed as reduction in cell viability incubated for 72 hrs by MTT assay; type: cell-based
NCI-H1975 [17] = assay: Inhibition of cell migration in human NCI-H1975 cells at 25 nM incubated for 24 hrs by phase contrast microscopy relative to control; type: functional
L02 [18] = assay: Cytotoxicity against human LO2 cells expressing EGFR assessed as reduction in cell viability incubated for 72 hrs by MTT assay; type: cell-based; settings: L02, 72 h
[19] = Toxicity in BALB/c mouse xenografted with human NCI-H1975 cells assessed as mortality at 10 to 20 mg/kg, ig for one week; type: organism-based; settings: in vivo, po
NCI-H1975 [20] = assay: Antitumor activity against human NCI-H1975 cells xenografted in BALB/c mouse assessed as tumor growth inhibition at 20 mg/kg, ig for one week; type: functional
NCI-H1975 [21] = assay: Antitumor activity against human NCI-H1975 cells xenografted in BALB/c mouse assessed as tumor volume at 20 mg/kg, ig for one week (reference value: 835.52 mm3); type: functional
[22] = Toxicity in BALB/c mouse xenografted with human NCI-H1975 cells assessed as body weight at 20 mg/kg, ig for one week (reference value: 1.6 g); type: organism-based; settings: in vivo, po
NCI-H1975 [23] = assay: Antitumor activity against human NCI-H1975 cells xenografted in BALB/c mouse assessed as tumor volume at 10 mg/kg, ig for one week (reference value: 835.52 mm3); type: functional
NCI-H1975 [24] = assay: Antitumor activity against human NCI-H1975 cells xenografted in BALB/c mouse assessed as tumor growth inhibition at 10 mg/kg, ig for one week; type: functional
[25] = Toxicity in BALB/c mouse xenografted with human NCI-H1975 cells assessed as body weight at 10 mg/kg, ig for one week (reference value: 1.6 g); type: organism-based; settings: in vivo, po
[26] = Mus musculus, NCI-H1975, po, 168 h, read-out: TGI

Epidermal growth factor receptor (Homo sapiens, UniProt P00533, L858R/T790M), sequence (P00533 25-1210 T790M/L858R limits assumed): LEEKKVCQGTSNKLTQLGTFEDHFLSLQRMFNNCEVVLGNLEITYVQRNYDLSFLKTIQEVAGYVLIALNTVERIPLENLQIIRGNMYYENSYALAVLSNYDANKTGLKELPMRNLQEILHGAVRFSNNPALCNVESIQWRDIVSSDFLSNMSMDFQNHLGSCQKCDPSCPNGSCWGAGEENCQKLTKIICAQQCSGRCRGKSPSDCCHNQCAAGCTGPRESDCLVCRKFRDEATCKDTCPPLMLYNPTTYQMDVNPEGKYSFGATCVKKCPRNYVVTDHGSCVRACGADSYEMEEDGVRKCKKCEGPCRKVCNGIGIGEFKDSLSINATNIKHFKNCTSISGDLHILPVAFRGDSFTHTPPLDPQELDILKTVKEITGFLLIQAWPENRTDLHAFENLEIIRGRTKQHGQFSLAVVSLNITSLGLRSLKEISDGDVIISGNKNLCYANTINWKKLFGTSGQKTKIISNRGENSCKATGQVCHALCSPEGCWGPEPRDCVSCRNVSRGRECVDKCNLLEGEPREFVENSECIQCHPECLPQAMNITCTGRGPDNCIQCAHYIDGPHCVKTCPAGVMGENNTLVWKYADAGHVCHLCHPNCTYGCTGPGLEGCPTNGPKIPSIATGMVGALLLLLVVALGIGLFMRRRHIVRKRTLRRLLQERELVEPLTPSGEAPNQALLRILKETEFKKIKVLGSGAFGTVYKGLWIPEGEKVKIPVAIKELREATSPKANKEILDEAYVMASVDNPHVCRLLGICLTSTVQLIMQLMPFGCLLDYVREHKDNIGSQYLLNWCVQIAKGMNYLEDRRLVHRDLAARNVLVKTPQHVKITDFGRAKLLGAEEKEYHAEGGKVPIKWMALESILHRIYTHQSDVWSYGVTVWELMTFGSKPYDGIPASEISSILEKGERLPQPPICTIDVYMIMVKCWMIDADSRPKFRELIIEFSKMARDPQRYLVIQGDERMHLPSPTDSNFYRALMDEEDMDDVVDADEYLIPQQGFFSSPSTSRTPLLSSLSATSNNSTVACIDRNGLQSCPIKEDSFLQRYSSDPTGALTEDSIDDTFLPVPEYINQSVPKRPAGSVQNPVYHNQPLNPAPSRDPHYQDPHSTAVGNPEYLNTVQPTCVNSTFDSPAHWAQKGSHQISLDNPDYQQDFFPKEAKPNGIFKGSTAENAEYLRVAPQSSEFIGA
Epidermal growth factor receptor (Homo sapiens, UniProt P00533, L858R), sequence (P00533 25-1210 L858R limits assumed): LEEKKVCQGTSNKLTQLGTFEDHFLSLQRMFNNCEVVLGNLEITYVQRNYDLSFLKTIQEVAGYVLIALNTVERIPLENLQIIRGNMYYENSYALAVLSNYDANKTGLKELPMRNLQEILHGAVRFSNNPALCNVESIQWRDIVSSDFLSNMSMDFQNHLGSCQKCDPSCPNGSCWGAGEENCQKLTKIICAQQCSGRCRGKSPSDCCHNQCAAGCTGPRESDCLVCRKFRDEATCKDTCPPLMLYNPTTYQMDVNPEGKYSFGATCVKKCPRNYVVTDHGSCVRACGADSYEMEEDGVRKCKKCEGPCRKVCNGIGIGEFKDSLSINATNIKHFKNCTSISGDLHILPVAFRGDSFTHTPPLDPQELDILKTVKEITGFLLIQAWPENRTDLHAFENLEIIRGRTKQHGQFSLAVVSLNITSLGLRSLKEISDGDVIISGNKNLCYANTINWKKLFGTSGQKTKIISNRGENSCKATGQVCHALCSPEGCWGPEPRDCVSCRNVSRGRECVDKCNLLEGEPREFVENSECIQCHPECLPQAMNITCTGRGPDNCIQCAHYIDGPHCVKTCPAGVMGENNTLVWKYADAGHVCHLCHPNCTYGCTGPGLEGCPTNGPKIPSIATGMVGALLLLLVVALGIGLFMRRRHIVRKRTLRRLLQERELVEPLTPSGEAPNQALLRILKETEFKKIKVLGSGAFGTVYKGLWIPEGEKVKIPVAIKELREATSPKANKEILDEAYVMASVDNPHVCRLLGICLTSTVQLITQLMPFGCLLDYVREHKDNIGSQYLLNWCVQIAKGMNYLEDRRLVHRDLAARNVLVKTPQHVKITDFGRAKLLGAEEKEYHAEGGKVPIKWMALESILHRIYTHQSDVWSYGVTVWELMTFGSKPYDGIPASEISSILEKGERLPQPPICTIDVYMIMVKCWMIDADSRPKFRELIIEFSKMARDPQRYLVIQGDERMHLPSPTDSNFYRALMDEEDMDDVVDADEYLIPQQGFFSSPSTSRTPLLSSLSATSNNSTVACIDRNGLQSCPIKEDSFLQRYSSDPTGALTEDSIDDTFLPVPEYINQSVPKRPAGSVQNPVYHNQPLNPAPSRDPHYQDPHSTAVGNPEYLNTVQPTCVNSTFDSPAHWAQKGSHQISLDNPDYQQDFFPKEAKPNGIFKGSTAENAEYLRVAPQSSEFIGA
Epidermal growth factor receptor (Homo sapiens, UniProt P00533), sequence (P00533 whole entry, the tested form may be a part): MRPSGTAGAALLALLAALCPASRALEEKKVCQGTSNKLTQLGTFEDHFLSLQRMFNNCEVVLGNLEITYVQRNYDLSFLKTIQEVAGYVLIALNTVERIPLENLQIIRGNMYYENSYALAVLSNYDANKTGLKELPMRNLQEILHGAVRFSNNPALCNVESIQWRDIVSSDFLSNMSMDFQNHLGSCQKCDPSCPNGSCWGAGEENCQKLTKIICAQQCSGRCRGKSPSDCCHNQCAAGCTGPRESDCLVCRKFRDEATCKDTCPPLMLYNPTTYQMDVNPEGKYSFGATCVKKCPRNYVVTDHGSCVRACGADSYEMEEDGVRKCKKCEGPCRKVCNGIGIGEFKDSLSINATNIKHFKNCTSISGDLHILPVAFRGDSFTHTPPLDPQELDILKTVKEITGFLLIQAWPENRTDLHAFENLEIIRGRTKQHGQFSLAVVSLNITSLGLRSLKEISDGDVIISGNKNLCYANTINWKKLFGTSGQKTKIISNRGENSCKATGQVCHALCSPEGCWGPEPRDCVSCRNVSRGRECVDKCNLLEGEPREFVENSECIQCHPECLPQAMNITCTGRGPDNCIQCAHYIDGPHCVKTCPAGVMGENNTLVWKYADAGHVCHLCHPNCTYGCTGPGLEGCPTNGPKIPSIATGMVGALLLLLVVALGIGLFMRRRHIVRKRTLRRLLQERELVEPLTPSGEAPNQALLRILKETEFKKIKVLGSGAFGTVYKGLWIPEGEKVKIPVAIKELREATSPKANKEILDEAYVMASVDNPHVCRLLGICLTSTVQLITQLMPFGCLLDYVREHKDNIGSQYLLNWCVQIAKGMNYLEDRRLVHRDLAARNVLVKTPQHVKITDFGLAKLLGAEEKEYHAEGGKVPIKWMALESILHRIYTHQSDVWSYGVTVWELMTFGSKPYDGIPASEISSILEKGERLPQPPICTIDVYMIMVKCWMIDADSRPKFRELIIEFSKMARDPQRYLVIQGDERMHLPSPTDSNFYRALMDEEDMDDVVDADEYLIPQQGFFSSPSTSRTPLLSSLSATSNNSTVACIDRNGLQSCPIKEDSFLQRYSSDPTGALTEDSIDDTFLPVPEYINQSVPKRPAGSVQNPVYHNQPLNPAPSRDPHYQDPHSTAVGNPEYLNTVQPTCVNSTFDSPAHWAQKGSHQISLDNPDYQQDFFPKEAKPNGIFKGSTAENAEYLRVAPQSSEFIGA

Structure (SMILES)	pIC50 (NCI-H292; Homo sapiens, NCI-H292, 72 h)	pIC50 (NCI-H1975 [2]; Homo sapiens, NCI-H1975, 72 h)	pIC50 (PC-9; Homo sapiens, PC-9, 72 h)	pIC50 [3]	pIC50 [4]	pIC50 [5]	other results
C=CC(=O)Nc1cc(Nc2nccc(-c3cn(C)c4ccccc34)n2)c(OC)cc1[S+]([O-])CCN(C)C (single isomer, unassigned; (+))							TGI (NCI-H1975 [1]): Dose-dependent effect
C=CC(=O)Nc1cc(Nc2nccc(-c3cn(C)c4ccccc34)n2)c(OC)cc1N(C)CC[S+](C)[O-] (stereo not given)	4.86	5.92	5.83	5.76	6.98	6.32	
C=CC(=O)Nc1cc(Nc2nccc(-c3cn(C)c4ccccc34)n2)c(OC)cc1[S+]([O-])CCN(C)C (stereo in doubt; (+)-4i)				6.50	8.30	8.22	pIC50 (NCI-H292; nci-h292): 5.87; Ratio IC50 [6]: 233; pIC50 (NCI-H1975 [2]; nci-h1975): 7.80; Ratio IC50 [7]: >625; Ratio IC50 [8]: > 625; pIC50 (PC-9; pc-9): 7.74; pIC50 [9]: 5.01; Ratio IC50 [10]: 233; Ratio IC50 [11]: > 625; pIC50 ([12]; hek293-a): 5.43
C=CC(=O)Nc1cc(Nc2nccc(-c3cn(C)c4ccccc34)n2)c(OC)cc1N1CCSCC1	4.71	6.40	6.51	6.28	7.19	7.10	
C=CC(=O)Nc1cc(Nc2nccc(-c3cn(C)c4ccccc34)n2)c(OC)cc1N(C)CCN(C)C [OSIMERTINIB]	5.96	[…]	[…]				Activity [13]: Toxic; Activity (L02 [14]): Toxic; Activity (HK-2 [15]): Toxic; pIC50 (HK-2 [16]): 5.45; pIC50 (BJ): < 5.00; pIC50 ([9]; Homo sapiens, HLF, 72 h): 5.06; inhibition (INH) (NCI-H1975 [17]): 60.54%; pIC50 (L02 [18]): […]; pIC50 ([12]; Homo sapiens, HEK293-A, 72 h): 5.62
C=CC(=O)Nc1cc(Nc2nccc(-c3cn(C)c4ccccc34)n2)c(OC)cc1N(C)CCN(C)C.O=S(=O)(O)O							Activity [19]: Non-Toxic; TGI (NCI-H1975 [20]): 98.49%; Activity (NCI-H1975 [21]): 18.23 mm3; Activity [22]: 1.9 g
C=CC(=O)Nc1cc(Nc2nccc(-c3cn(C)c4ccccc34)n2)c(OC)cc1N(C)CCCl	4.92	6.18	5.96	5.70	6.91	6.38	
C=CC(=O)Nc1cc(Nc2nccc(-c3cn(C)c4ccccc34)n2)c(OC)cc1S(=O)(=O)CCN(C)C	5.19	6.00	5.64				
C=CC(=O)Nc1cc(Nc2nccc(-c3cn(C)c4ccccc34)n2)c(OC)cc1[S+]([O-])CCN(C)C.O=S(=O)(O)O (single isomer, unassigned; (+))							TGI (NCI-H1975 [20]): 85.41%; Activity (NCI-H1975 [21]): 117.87 mm3; Activity (NCI-H1975 [23]): 141.5 mm3; TGI (NCI-H1975 [24]): 81.82%; Activity [25]: 2.1 g; Activity [22]: 2.1 g
C=CC(=O)Nc1cc(Nc2nccc(-c3cn(C)c4ccccc34)n2)c(OC)cc1SCCN(C)C	5.98	7.31	7.36	6.48	7.96	7.85	
C=CC(=O)Nc1cc(Nc2nccc(-c3cn(C)c4ccccc34)n2)c(OC)cc1N(C)CCO	5.08	6.74	6.86				
C=CC(=O)Nc1cc(Nc2nccc(-c3cn(C)c4ccccc34)n2)c(OC)cc1[S+]([O-])CCN(C)C (racemic)	5.98	7.89	7.77	6.62	8.30	8.15	Activity [13]: Non-Toxic; Activity (L02 [14]): Non-Toxic; Activity (HK-2 [15]): Non-Toxic; pIC50 (HK-2 [16]): < 5.00; Ratio IC50 [6]: 715; Ratio IC50 [7]: >769; pIC50 (BJ): < 5.00; selectivity ratio ([8]; read-out: Ratio IC50): > 769; pIC50 ([9]; Homo sapiens, HLF, 72 h): 5.03; selectivity ratio ([10]; read-out: Ratio IC50): 322; pIC50 (L02 [18]): < 5.00; selectivity ratio ([11]; read-out: Ratio IC50): > 769; pIC50 ([12]; hek293-a): 5.38
C=CC(=O)Nc1cc(Nc2nccc(-c3cn(C)c4ccccc34)n2)c(OC)cc1N(C)CCSC	4.75	5.55	5.41	5.84	6.67	6.51	
C=CC(=O)Nc1cc(Nc2nccc(-c3cn(C)c4ccccc34)n2)c(OC)cc1[S+]([O-])CCN(C)C.O=S(=O)(O)O (single isomer, unassigned; (-))							Activity [19]: Non-Toxic; inhibition in vivo at 20 mg/kg (NCI-H1975 [20]; [26]): 94.3%; Activity (NCI-H1975 [21]): 48.23 mm3; Activity (NCI-H1975 [23]): 106.81 mm3; inhibition in vivo at 10 mg/kg (NCI-H1975 [24]; [26]): 87.6%; Activity [25]: 1.6 g; Activity [22]: 2.4 g
C=CC(=O)Nc1cc(Nc2nccc(-c3cn(C)c4ccccc34)n2)c(OC)cc1N1CCS(=O)(=O)CC1	5.43	7.02	7.00	6.47	7.42	7.34	
C=CC(=O)Nc1cc(Nc2nccc(-c3cn(C)c4ccccc34)n2)c(OC)cc1N1CC[S+]([O-])CC1	5.08	6.97	6.75	6.38	7.12	7.19	
